{"source": "ChEMBL document CHEMBL1130862", "about": "“Synthesis and acetylcholinesterase inhibitory activity of (+/-)-14-fluorohuperzine A” (Bioorg Med Chem Lett, 1998)", "target": "T1, Acetylcholinesterase (Rattus norvegicus, UniProt P37136)", "T1 sequence (P37136 whole entry)": "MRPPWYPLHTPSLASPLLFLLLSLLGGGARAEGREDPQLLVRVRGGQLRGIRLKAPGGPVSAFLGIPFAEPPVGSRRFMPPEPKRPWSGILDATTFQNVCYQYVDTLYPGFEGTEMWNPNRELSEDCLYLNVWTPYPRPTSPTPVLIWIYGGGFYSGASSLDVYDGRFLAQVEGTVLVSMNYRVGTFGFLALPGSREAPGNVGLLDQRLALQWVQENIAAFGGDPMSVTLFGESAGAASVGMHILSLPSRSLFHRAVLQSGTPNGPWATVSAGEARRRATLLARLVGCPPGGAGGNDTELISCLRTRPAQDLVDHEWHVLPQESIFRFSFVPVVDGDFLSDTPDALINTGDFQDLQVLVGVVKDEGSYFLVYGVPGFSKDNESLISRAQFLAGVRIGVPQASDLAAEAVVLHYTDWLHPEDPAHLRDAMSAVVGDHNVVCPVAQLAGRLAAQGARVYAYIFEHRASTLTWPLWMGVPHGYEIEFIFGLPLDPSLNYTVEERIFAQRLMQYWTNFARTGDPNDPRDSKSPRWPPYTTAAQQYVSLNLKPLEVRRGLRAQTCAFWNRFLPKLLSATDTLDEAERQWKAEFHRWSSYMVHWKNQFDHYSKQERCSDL", "assay": "In vitro inhibitory activity against Acetylcholinesterase (AChE) using rat brain hippocampal crude homogenates.", "assay_type": "tissue-based, Hippocampus", "note": "pIC50: −log10 of the molar value.", "data": [{"molecule": "CC1=CC2Cc3nc(O)ccc3C(N)(C1)/C2=C/CF", "note": "(stereo unspecified)", "values": [{"measurement": "pIC50", "value": 5.00}]}]}
